Assay results reported in ChEMBL document CHEMBL1126173, “Molecular recognition of amiloride analogs: a molecular electrostatic potential analysis. 1. Pyrazine ring modifications” (J Med Chem, 1992).

Experiments:
Settings in all cases: rana ridibundus
[1] = Blocking time for inhibition of epithelial sodium channels- NA+/H+ antiporter, Na+/ca+2 exchanger, Na+/ca+2 channels, K+ channel, nicotinic acetylcholine receptor and Na+/K+ ATPase
[2] = Inhibitory activity against epithelial sodium channels- NA+/H+ antiporter, Na+/ca+2 exchanger, Na+/ca+2 channels, K+ channel, nicotinic acetylcholine receptor and Na+/K+ ATPase
[3] = Inhibitory activity against epithelial sodium channels- NA+/H+ antiporter, Na+/ca+2 exchanger, Na+/ca+2 channels, K+ channel, nicotinic acetylcholine receptor and Na+/K+ ATPase (microscopic dissociation constant); format: ADME
[4] = Inhibitory activity against epithelial sodium channels- NA+/H+ antiporter, Na+/ca+2 exchanger, Na+/ca+2 channels, K+ channel, nicotinic acetylcholine receptor and Na+/K+ ATPase(microscopic dissociation constant)

## Nc1nc(N)c(C(=O)NC(N)N)nc1I
[1]
  Block time: 57 ms
[2]
  Kon: 1.143e+07 M⁻¹ s⁻¹
[3]
  Koff: 17.41 s⁻¹

## Nc1nc(N)c(C(=O)NC(N)N)nc1F
[1]
  Block time: 31 ms
[2]
  Kon: 1.354e+07 M⁻¹ s⁻¹
[3]
  Koff: 32.2 s⁻¹

## Nc1cnc(C(=O)NC(N)N)c(N)n1
[1]
  Block time: 6 ms
[2]
  Kon: 1.447e+07 M⁻¹ s⁻¹
[3]
  Koff: 176.25 s⁻¹

## Nc1nc(N)c(C(=O)NC(N)N)nc1Br
[1]
  Block time: 179 ms
[2]
  Kon: 1.419e+07 M⁻¹ s⁻¹
[4]
  Koff: 5.58 s⁻¹

## Nc1nc(N)c(C(=O)NC(N)N)nc1Cl
[1]
  Block time: 255 ms
[2]
  Kon: 1.317e+07 M⁻¹ s⁻¹
[3]
  Koff: 3.93 s⁻¹

## Nc1nc(Cl)c(Cl)nc1C(=O)NC(N)N
[1]
  Block time: 7 ms
[2]
  Kon: 5.16e+06 M⁻¹ s⁻¹
[3]
  Koff: 151.1 s⁻¹

## Nc1ncc(Cl)nc1C(=O)NC(N)N
[1]
  Block time: 92 ms
[2]
  Kon: 3.32e+06 M⁻¹ s⁻¹
[3]
  Koff: 10.89 s⁻¹
